Patent US20090264382A1, “Methods for Treating Hematopoietic Neoplasms” (priority 2007, published 2009)
Where a SMILES comes first, the peptide text is derived from it. The star is where a group is joined. Cbz = O=C(OCc1ccccc1)*; CH2F = FC*

What was measured:
Format in all cases: cell-based, human
HL60 cells = assay: Reversal of CA4P-induced apoptosis by caspase inhibitors and ROS scavenger, Annexin V/PI
Experimental: Leukemic cells were treated with or without CA4P for 48 hours in presence of caspase inhibitor Q-VD and the percentage of apoptotic leukemic cells was determined by Annexin V and propidium iodide staining using flow cytometry. Percentage of alive Annexin V(−)/PI(−) cells was plotted.
HL-60 cells were treated with or without CA4P for 48 hours in presence of another ROS scavenger, deferoxamine (DFX), and caspase inhibitor Q-VD and the percentage of apoptotic leukemic cells was determined by Annexin V and propidium iodide staining using flow cytometry.

caspase-3 = assay: CA4P-induced caspase-3 activation
leukemic cells = assay: Intracellular ROS detection with H2DCFDA
Experimental: Intracellular ROS were detected as previously described (Krejsa & Schieven, Methods Mol Biol 99:35-47 (2000)). Briefly, leukemic cells were loaded with 2 μM H2DCFDA (Molecular Probes) in assay buffer (RPMI with 10 mM HEPES) for 30 min. at 37° C. and mean fluorescent intensity was measured by flow cytometry. Results are shown from triplicate measurements (±SEM) and are representative of three independent experiments (*p<0.05 as compared with untreated cells; n=3).

[1] = system: leukemic cells (HL60, R81, U937, KG1a, THP-1); assay: Protection from CA4P-mediated cell death by ascorbic acid, trypan blue exclusion; settings: CA4P 5 or 10 nM, 48 hours
Experimental: Leukemic cells were treated with 5 nM (HL60, R81, U937) or 10 nM (KG1a, THP-1) for 48 hours with the ascorbic acid concentrations indicated and viable cells determined by trypan blue exclusion. Results of three experiments in triplicate are expressed as percentage of viable cells compared to control±SEM (*p<0.05 as compared with CA4P-untreated cells; n=3).

KG1a leukemic cells = assay: Release of nuclear HMG1 protein into supernatant (necrosis marker), Western blot; settings: 24 hours, CA4P 20 mM, staurosporine 100 μM as printed
Experimental: Nonetheless, to rule out the possibility that CA4P may trigger necrotic cell death in subsets of the leukemic cells, the release of nuclear HMG1 protein into the culture supernatant, which has been described as a sensitive and highly specific marker for necrotic cell death (Scaffidi, et al. 2002. Nature 418, 191-5), was quantified. For detection of HMG1 protein, KG1a leukemic cells (1×106 in 2 ml X-vivo/5% FBS) were incubated with 100 μM staurosporine to induce apoptosis, freeze-thawed three times to induce necrosis, or treated with 20 mM CA4P for 24 hours. Cells were spun down, pelleted and the supernatant subjected to Western blot for HMG135.

Question: How did the “inhibition of CA4P-induced cell death” value (HL60 cells; HL60, DFX together with caspase inhibitor Q-VD, 48 hours) turn out when `CC(=O)N(O)CCCCCNC(=O)CCC(=O)N(O)CCCCCNC(=O)CCC(=O)N(O)CCCCCN` [DFX, deferoxamine] was run?
Answer: Its value is “up to 71%”.

Question: Which “CA4P-induced caspase-3 activation” value (caspase-3) does the source give for `CC(C)[C@H](NC(=O)c1ccc2ccccc2n1)C(=O)N[C@@H](CC(=O)O)C(=O)COc1c(F)cccc1F` [Q-VD, Q-VD-OPh] here?
Answer: The value was “blocked”.

Question: What about the “CA4P induced apoptosis blocked” value (HL60 cells; HL60 cells, 48 hours, Annexin V/PI) of the same compound?
Answer: The value was 33%.

Question: What does the source list for `COC(=O)C[C@H](NC(=O)[C@H](C)NC(=O)[C@@H](NC(=O)OCc1ccccc1)C(C)C)C(=O)CF` [Z-VAD-fmk] (Cbz-Val-Ala-Asp(OMe)-CH2F)?
Answer: CA4P-induced caspase-3 activation (caspase-3): blocked; effect on CA4P-induced apoptosis (HL60 cells; data not shown): no effect

Question: With `O=C1O[C@H]([C@@H](O)CO)C(O)=C1O` [ascorbic acid, reference compound] as the compound, how does the “effect on CA4P-induced ROS accumulation” value (leukemic cells) read?
Answer: The value was “reversal of ROS accumulation”.

Question: And the “effect of co-incubation on CA4P-mediated cell death” value [1]?
Answer: The value was “partial decrease in CA4P-mediated cell death”.

Question: `CN[C@@H]1C[C@H]2O[C@@](C)([C@@H]1OC)n1c3ccccc3c3c4c(c5c6ccccc6n2c5c31)C(=O)NC4` [staurosporine, reference compound] was tested. Which “release of nuclear HMG1 protein into the supernatant” value (KG1a leukemic cells) did it give?
Answer: The value was “not”.
